Results from patent US20060234914A1, “Fragments of proinsulin c-peptide” (Creative Peptides Sweden AB, priority 2002, published 2006).
Where two headings read alike, the source gives them in different places.

Tests used:
[1] = test system: human renal tubular cells; assay: Intracellular Ca2+ concentration ([Ca2+]i) measurements as an assay of C-peptide activity; type: cell-based; conditions: for [Ca2+]i response after preincubation of the cells with pertussis toxin: pertussis toxin 1 μg/ml for 4 h at 37° C.
Description: Based on studies showing a C-peptide effect on the intracellular Ca^2+ concentration ([Ca^2+]) (Ohtomo et al., supra, Kunt et al., supra), an assay has been developed, for C-peptide activity, based on measuring [Ca^2+]i changes in human renal tubular cells, namely a rise in [Ca^2+]i.
The following peptides were used, all prepared by solid-phase peptide synthesis and purchased from Sigma (Genosys (Cambridge, UK): human C-peptide, scrambled C-peptide (with the same residues, but randomly ordered des (27-31) C-peptide and C-terminal pentapeptide (EGSLQ).
Human renal tubular cells were obtained from the outer cortex of renal tissues obtained from non-diabetic patients undergoing elective nephrectomy for renal cell carcinomas. The collection of the tissue samples during suegery was approved by the Ethics Committee of the Karolinska Hospital. The cells were cultured in RPMI 1640 (Life Technologies, Grand Island, N.Y.) supplemented with 10% fetal calf serum, 2 mM L-glutamine, 10 mM HEPES, benzylpenicillin (100 U/ml), and streptbmycin (100 U/ml). Cells were grown to confluency on cover slips in a six-well plate and starved in serum-free medium for 4 hours before experiments.
Changes in [Ca^2+1]1 were measured on cells attached to cover slips. The cells were loaded with 2 μM of the fluorescent Ca^2+ indicator fura-2/AM at 37° C. for 30 minutes in a buffer containing 115 mM NaCl, 24 mM NaHCO3, 4.7 mM KCl, 1.26 mM CaCl2 1.2 mM KH2PO4, 1.2 mM MgSOZ 11.1 mM glucose, 20 mM HEPES, and 5 mg/ml bovine serum albumin, pH 7.4. Cover slips were mounted as the bottom of an open chamber placed on a thermostatically controlled stage of an inverted epifluorescence microscope (Zeiss, Axiovert 135). The microscope was connected to a SPEX fluorolog-2 system for dual-wave-length excitation fluorimetry. The emissions of the two excitation wavelengths of 340 and 380 nm were used to calculate the fluorescence ratio (F340/F380) reflecting changes in [Ca^2+]i, [17]. Treatments during recordings were made using a perifusion system attached to the chamber. Changes in [Ca^2+]i were measured using an attached CCD camera that allowed recording of individual cells in the cell clusters. The influence of pertussis toxin was studied by preincubation of the cells with the toxin at 1 μg/ml for 4 h at 37° C.
In these peptides each or all of Glu 3, Glu 11 and Glu 27 of human C-peptide were replaced by Ala. In addition, all of Glu 3, Glu 11 and Glu 27 were replaced by Gln. The peptides were tested for C-peptide activity by monitoring for rises in [Ca^2+]i as described in Example 1.

[2] = test system: p44/42 MAP kinase (Erk1 and Erk2); assay: Western blot of p44/42 MAP kinase phosphorylation in Swiss 3T3 cells; type: cell-based, rat; conditions: Example 6, 1 nM peptide, 3 minutes at 37° C., FIG. 3
Description: Swiss 3T3 cells, a […] fibroblast cell line, passage 6, were seeded 96 h before use in three 6-well plates. After 96 h, the cells in each well were confluent. The cultivation medium was Dulbecco's Modified Eagle Medium (DMEM) without sodium pyruvate, with pyridoxineHCl, 4500 mg/l glucose, 50 μg/ml gentamicin, and 10% foetal calf serum (FCS).
The cells were washed thoroughly with 37° C. starvation medium (cultivation medium as above without addition of FCS) and then kept in 1 ml 37° C. starvation medium for 2.5 h. 15 min. prior to the experiment, the buffer was changed to 37° C. Hanks' buffer (Gibco), and then kept in 37° C. […]
Protein content was determined in the collected supernatants using a BCA Protein Assay Reagent Kit (Pierce), including albumin standards. […]
The PVDF membranes were incubated with primary antibodies against (I) Phosphop44/42 MAP Kinase (Thr202/Tyr204) and (II) p44/42 MAP Kinase, respectively. […] The membranes were rinsed with TBS/T, and HRP activity on the membranes was detected with the SuperSignal® West Pico Chemiluminescent Substrate kit (Pierce).
Photographic films were exposed to the membranes, and bands of appropriate sizes on the resulting films were quantitated by densitometry, using a GS-710 Imaging Densitometer (Bio-Rad) and Quantity One software (Bio-Rad). […]

| Substance | changes in [Ca2+]i (F340/F380 ratio) [1] | [Ca2+]i response after preincubation of the cells with pertussis toxin [1] | capacity of phosphorylating p44/42 MAP kinase [2] | changes in [Ca2+]i (F340/F380 ratio) ([1]; human renal tubular cells loaded with fura-2/AM, peptide 5 and 10 nM) |
| --- | --- | --- | --- | --- |
| EGSLQ [C-terminal pentapeptide] | Results similar to those with human C-peptide | eliminated |  |  |
| EAEALQAAQAELGGGPGAGSLQPLALEGSLQ (EAEALQAAQAELGGGPGAGSLQPLALEGSLQ) [Alanine-rich C-peptide] |  |  | did not decrease the biological activity |  |
| EAEDLQVGQVELGGGPGAGSLQPLALEGSLQ [human C-peptide] |  | eliminated |  | effect of 5 nM human C-peptide may be seen |
| EAEPLQPPQPELGGGPGAGSLQPLALEGSLQ [Proline-rich C-peptide] |  |  | decrease in phosphorylating capacity |  |
